ChEMBL document CHEMBL1137948, “The design and synthesis of sulfonamides as caspase-1 inhibitors” (Bioorg Med Chem Lett, 2004)

Assays:
Caspase-1 = biological target: T1, Caspase-1 (Homo sapiens, UniProt P29466); assay: (§1) Inhibitory activity against caspase-1
T1 sequence (P29466 whole entry): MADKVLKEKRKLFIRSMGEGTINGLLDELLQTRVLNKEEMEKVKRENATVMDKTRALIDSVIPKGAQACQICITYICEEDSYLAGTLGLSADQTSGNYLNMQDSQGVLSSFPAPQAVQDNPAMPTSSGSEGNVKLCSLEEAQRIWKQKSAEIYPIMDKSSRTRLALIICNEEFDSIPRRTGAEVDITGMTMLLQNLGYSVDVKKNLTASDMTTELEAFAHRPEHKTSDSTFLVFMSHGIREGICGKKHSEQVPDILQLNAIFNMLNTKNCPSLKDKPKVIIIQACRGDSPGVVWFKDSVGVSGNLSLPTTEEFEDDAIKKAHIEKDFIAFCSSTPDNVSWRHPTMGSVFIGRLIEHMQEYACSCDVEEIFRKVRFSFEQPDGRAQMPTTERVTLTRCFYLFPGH

[1] = as §1

Compound | IC50 (Caspase-1) | Ki (Caspase-1) | Ki [1]
CC(=O)N[C@@H](Cc1ccc(O)cc1)C(=O)N[C@H](C(=O)N[C@@H](C)C(=O)NC(CC(=O)O)C(=O)CCCCCc1ccccc1)C(C)C (some centres undefined) | 0.071 µM | 0.014 µM | –
O=C(O)CC(NC(=O)OCc1ccccc1)C(=O)CCCCCc1ccccc1 (centres undefined) | 1030 µM | 119 µM | –
CC(C)[C@H](NC(=O)OCc1ccccc1)C(=O)N[C@@H](C)C(=O)NC(CC(=O)O)C(=O)CCCCCc1ccccc1 (some centres undefined) | 0.976 µM | 0.134 µM | –
CC(=O)N[C@@H](Cc1ccc(O)cc1)C(=O)N[C@@H](CCC(=O)O)C(=O)N[C@@H](C)C(=O)NC(CC(=O)O)C(=O)CNS(=O)(=O)CCc1ccccc1 (some centres undefined) | 0.0034 µM | 0.004 µM | –
C[C@H](NC(=O)[C@H](CCC(=O)O)NC(=O)OCc1ccccc1)C(=O)NC(CC(=O)O)C(=O)CNS(=O)(=O)CCc1ccccc1 (some centres undefined) | 0.0253 µM | 0.0239 µM | –
O=C(O)CC(NC(=O)OCc1ccccc1)C(=O)CNS(=O)(=O)Cc1ccccc1 (centres undefined) | 168 µM | – | 18 µM
CC(C)[C@H](NC(=O)OCc1ccccc1)C(=O)N[C@@H](C)C(=O)NC(CC(=O)O)C(=O)CNS(=O)(=O)CCc1ccccc1 (some centres undefined) | 0.072 µM | 0.004 µM | –
